How the values were obtained:
[1] = Storage stability test (absorbance of aqueous buffer solution at 460 nm); format: physicochemical; details: 1 mM in 50 mM Tris buffer (pH 8.0), stored at 4° C. for 0, 1, 7, 14, 31 and 90 days
Procedure: 50 mM Tris buffer (pH 8.0) containing 1 mM of Compound a was stored at 4° C. for 0, 1, 7, 14, 31 and 90 days, and absorbances at 460 nm were measured. At the same time, the compound of the above general formula (2) described in Japanese Patent Unexamined Publication No.(Hei) 7-70092/1995 wherein both R^1 and R^2 are nitro groups (Compound b: see, the section of "Background Art") was stored in the same manner, and changes of absorbance were measured.

[2] = background statement; cited from earlier work

For `O=[N+]([O-])c1ccc(-n2nc(-c3ccc(S(=O)(=O)O)cc3S(=O)(=O)[O-])n[n+]2-c2ccc(I)cc2)c([N+](=O)[O-])c1` [Compound b], the “changes of absorbance at 460 nm on storage” value [1] was “remarkable increases of absorbance”.
In the case of `COc1cc(-c2ccc(-n3nc(-c4ccccc4)n[n+]3-c3ccc([N+](=O)[O-])cc3)c(OC)c2)ccc1-n1nc(-c2ccccc2)n[n+]1-c1ccc([N+](=O)[O-])cc1` [nitro-TB, 3,3'-[3,3'-dimethoxy-(1,1'-biphenyl)-4,4'-diyl]-bis[2-(4-nitrophenyl)-5-phenyl]-2H-tetrazolium chloride], the “water solubility of formazan compound” value [2] is given as “low water solubility”.

Source: US6063587A, “Water-soluble tetrazolium salt compounds” (Dojindo Laboratories Co., Ltd., priority 1996, dated 2000)
